The values below are quoted from earlier work in US20070173447A1, “METHOD FOR TREATING OSTEOPOROSIS BY INTRANASAL DELIVERY OF TERIPARATIDE WITH AN ANTI-RESORPTIVE AGENT” (Nastech Pharmaceutical Company Inc., priority 2005, published 2007).

For data set [1] the following is noted: anesthetized rats.
The conditions of data set [2]: after feeding to rats.
The conditions of data set [3]: intranasal, up to 500 μg per day for 7 days and up to 1,000 μg per day for 3 months.
For data set [4] the following is noted: rats, intraduodenal, with 1% (w/v) saline dispersion of polycarbophil.

Read-outs that look alike come from different tables or passages of the source. Ends that are not written are not given here.

Take human growth hormone: the results for the nasal bioavailability in data set [1] (with N-acetyl-L-cysteine) and in data set [1] (without N-acetyl-L-cysteine) were 12.2% and 7.5%, respectively.
On to “2-alkyl-4-hydroxyquinolines [pyo compound]”, for which the “concentration producing ciliostasis / inhibiting ciliary motility” value with ciliary motility was 50 µg/mL.
Consider Phaseolus vulgaris hemagglutinin, for which, in data set [2], the oral bioavailability entry is listed as “more than 10%”.
Take “hPTH1-31NH2 (SVSEIQLMHNLGKHLNSMERVEWLRKKLQDV-NH2; listed as Homo sapiens)”: in the data set on ovariectomized rat model, the “restoration of bone loss” value is reported as “fully active”.
For the molecule `CC[C@H](C)[C@H](NC(=O)[C@H](CCC(=O)O)NC(=O)[C@H](CO)NC(=O)[C@@H](NC(=O)[C@@H](N)CO)C(C)C)C(=O)N[C@@H](CCC(N)=O)C(=O)N[C@@H](CC(C)C)C(=O)N[C@@H](CCSC)C(=O)N[C@@H](Cc1cnc[nH]1)C(=O)N[C@@H](CC(N)=O)C(=O)N[C@@H](CC(C)C)C(=O)NCC(=O)N[C@@H](CCCCN)C(=O)N[C@@H](Cc1cnc[nH]1)C(=O)N[C@@H](CC(C)C)C(=O)N[C@@H](CC(N)=O)C(=O)N[C@@H](CO)C(=O)N[C@@H](CCSC)C(=O)N[C@@H](CCC(=O)O)C(=O)N[C@@H](CCCN=C(N)N)C(=O)N[C@H](C(=O)N[C@@H](CCC(=O)O)C(=O)N[C@@H](Cc1c[nH]c2ccccc12)C(=O)N[C@@H](CC(C)C)C(=O)N[C@@H](CCCN=C(N)N)C(=O)N[C@@H](CCCCN)C(=O)N[C@@H](CCCCN)C(=O)N[C@@H](CC(C)C)C(=O)N[C@@H](CCC(N)=O)C(=O)N[C@@H](CC(=O)O)C(=O)N[C@H](C(=O)N[C@@H](Cc1cnc[nH]1)C(=O)N[C@@H](CC(N)=O)C(=O)N[C@@H](Cc1ccccc1)C(=O)O)C(C)C)C(C)C` [Teriparatide, teriparatide], the safety concerns entry in data set [3] is “No safety concerns were noted”.
Take “9-desglycinamide, 8-arginine vasopressin [DGAVP]”: the “bioavailability increase compared to aqueous solution without polymer” value in data set [4] is listed as 3-5 fold.
